Data on 8 compounds can be found in US6455575B2, “Phosphonooxymethyl ethers of taxane derivatives” (Bristol-Myers Squibb Company, priority 1992, dated 2002).

Bounds are passed on as bounds.

Test [1] relates to HCT-116 human colon carcinoma cells. The test is described as follows: In vitro cytotoxicity, XTT assay. Type of test: cell-based. The note with it: 72 h incubation, Examples 1 and 4 as free acid, example 3 as sodium salt. For orientation: Tetrazolium dyes change colour on reduction, which living cells bring about.
The subject of test [2] is HCT-116/VM46 human colon carcinoma cells. The test is described as follows: In vitro cytotoxicity, XTT assay, multi-drug resistant line. In kind it is cell-based. The note with it: 72 h incubation, teniposide-selected, paclitaxel-resistant cells, Examples 1 and 4 as free acid, example 3 as sodium salt.
Test [3] relates to M109 lung carcinoma. As to the kind of experiment: In vivo antitumor activity, subcutaneous M109 model. More on the design: species or system mice. The note with it: for T-C / max. % T/C: once daily x5 from Day 4.
Test [4] relates to HCT-116 human colon carcinoma. The test is described as follows: HCT-116 human tumor xenograft model. In kind it is in vivo. The note with it: for cures (tumor-free on Day 80 post tumor implant): athymic mice, every other day x5.
For test [5], the system named is M109 lung carcinoma. As to the kind of experiment: Mice M109 model, intraperitoneal implant. In kind it is in vivo. The note with it: ip M109, ip injections, d. 5 + 9, median survival. As for the experimental part: Balb/c x DBA/2 F1 hybrid mice were implanted intraperitoneally, as described by William Rose in Evaluation of Madison 109 Lung Carcinoma as a Model for Screening Antitumor Drugs, Cancer Treatment Reports, 65, No. 3-4 (1981), with 0.5 mL of a 2% (w/v) brei of M109 lung carcinoma.
Mice were treated with compound under study by receiving intraperitoneal injections of various doses on either days 1, 5 and 9 post-tumor implant or days 5 and 8 post-implant. Mice were followed daily for survival until approximately 75 -90 days post-tumor implant. One group of mice per experiment remained untreated and served as the control group. Median survival times of compound-treated (T) mice were compared to the median survial time of the control (C) mice. The ratio of the two values for each compound-treated group of mice was multiplied by 100 and expressed as a percentage (i.e. % T/C) in Table III for representative compounds of formula (B′).

For test [6], the system named is A2780/cDDP human ovarian carcinoma resistant to cisplatin. As to the kind of experiment: A2780/cDDP human tumor xenograft model. Type of test: in vivo. The note with it: athymic mice, every other day x5.
Setting [7] is: another M109 experiment, triethanolamine salt, iv, 48 mg/kg/inj.
[8] abbreviates: another M109 experiment, triethanolamine salt, orally, 200 mg/kg/adm.
Where [9] appears, read: one M109 experiment, triethanolamine salt, iv in water, 36 mg/kg/inj.
Where [10] appears, read: one M109 experiment, triethanolamine salt, orally, 160 mg/kg/adm.
[11] abbreviates: iv, 36 mg/kg/inj, Example 3 as triethanolamine salt.
Setting [12] is: another M109 experiment, iv, 48 or 36 mg/kg/inj.
The mark [13] stands for this setting: one M109 experiment, iv, 36 or 18 mg/kg/inj.
The mark [14] stands for this setting: sc M109, i.v. once daily days 5-9, opt. dose 18 mg/kg/inj.

As a reminder, the IC50 is the point on the concentration scale where inhibition reaches its midpoint. Take “7-O-phosphonooxymethylpaclitaxel [Example 1]”: the IC50 in test [1] stood at 0.0158 µM; in test [2], 1.24 µM. Also, the “Maximum Effect T-C” value in the test on M109 lung carcinoma [3] (sc M109, CDF1 mice, sodium salt, i.v. once daily days 4-8, opt. dose 45 mg/kg/inj, delay to 1 gm tumor) came out at 14.0 days. Besides, the “Maximum Effect % T/C” value in the test with M109 lung carcinoma [3] (sc M109, CDF1 mice, sodium salt, i.v. once daily days 4-8 post-tumor implant, opt. dose 45 mg/kg/inj, median survival) came to 131%. The “oral activity in the M109 model” value in the test on M109 lung carcinoma [3] (triethanolamine salt, oral) was “oral activity”. Further, in test [4] (triethanolamine salt, oral), the “oral activity in the HCT-116 model” value is “oral activity”.

For the compound `CSCO[C@H]1C[C@H]2OC[C@@]2(OC(C)=O)[C@H]2[C@H](OC(=O)c3ccccc3)[C@]3(O)C[C@H](OC(=O)[C@H](O)[C@@H](NC(=O)OC(C)(C)C)c4ccccc4)C(C)=C([C@@H](OC(C)=O)C(=O)[C@]12C)C3(C)C` [14 (b), 3′-N-debenzoyl-3′-N-(t-butoxycarbonyl)-7-O-methylthiomethylpaclitaxel], in the test with M109 lung carcinoma [5] (12 mg/kg/inj.), the “T/C (mg/kg/inj.; schedule in days)” value is reported as 143 (12; d. 5 + 9) %.

As to `CSCO[C@H]1C[C@H]2OC[C@@]2(OC(C)=O)[C@H]2[C@H](OC(=O)c3ccccc3)[C@]3(O)C[C@H](OC(=O)[C@H](O)[C@@H](NC(=O)c4ccccc4)c4ccccc4)C(C)=C([C@@H](OC(C)=O)C(=O)[C@]12C)C3(C)C` [Example 1 (a), 7-O-methylthiomethylpaclitaxel], the IC50 in test [1] came out at 0.003 µM; in test [2], 0.025 µM.

Regarding `CCOC(=O)O[C@@H](C(=O)O[C@H]1C[C@@]2(O)[C@@H](OC(=O)c3ccccc3)[C@@H]3[C@]4(OC(C)=O)CO[C@@H]4C[C@H](OCOP(=O)(O)O)[C@@]3(C)C(=O)[C@H](OC(C)=O)C(=C1C)C2(C)C)[C@@H](NC(=O)c1ccccc1)c1ccccc1` [Example 3, 2′-O-(ethoxycarbonyl)-7-O-phosphonooxymethylpaclitaxel], the half-maximal inhibitory concentration (IC50) in test [1] was found to be 0.312 µM; in test [2], 6.25 µM. Moreover, the T-C in the test on M109 lung carcinoma [3] (setting [7]) came to 17 days; in the test on M109 lung carcinoma [3] (setting [8]), 17 days; in the test with M109 lung carcinoma [3] (setting [9]) it was 19 days; with M109 lung carcinoma [3] (setting [10]) it was 22.8 days. For the same compound, the “max. % T/C” value with M109 lung carcinoma [3] (setting [7]) came out at 170%; with M109 lung carcinoma [3] (setting [8]), 172%; in the test with M109 lung carcinoma [3] (setting [9]) it was 155%; in the test on M109 lung carcinoma [3] (setting [10]) it was 158%. Further, the “Maximum Effect T-C” value in the test on M109 lung carcinoma [3] (sc M109, sodium salt, i.v. once daily days 5-9, opt. dose 24 mg/kg/inj) was 18.8 days. The “Maximum Effect % T/C” value in the test on M109 lung carcinoma [3] (sc M109, sodium salt, i.v. once daily days 5-9 post-tumor implant, opt. dose 24 mg/kg/inj) was 160%. Moreover, the “max. T-C” value in test [6] (setting [11]) was 29.8 days; in test [6] (orally, 160 mg/kg/adm., triethanolamine salt) it was 20 days. The “cures (tumor-free on Day 80 post tumor implant)” value worked out at 6 in test [4] (oral, 160 mg/kg/adm., triethanolamine salt, of 8 treated mice) and 7 in test [4] (oral, 240 mg/kg/adm., triethanolamine salt, of 8 treated mice).

For the compound `CC(=O)O[C@H]1C(=O)[C@@]2(C)[C@H]([C@H](OC(=O)c3ccccc3)[C@]3(O)C[C@H](OC(=O)[C@H](OCOP(=O)(O)O)[C@@H](NC(=O)c4ccccc4)c4ccccc4)C(C)=C1C3(C)C)[C@]1(OC(C)=O)CO[C@@H]1C[C@@H]2O` [Example 4, 2′-O-(Phosphonooxymethyl)paclitaxel], the IC50 in test [1] is 0.0457 µM; in test [2], greater than 6.3 µM.

For the compound `CCOC(=O)O[C@@H](C(=O)O[C@H]1C[C@@]2(O)[C@@H](OC(=O)c3ccccc3)[C@@H]3[C@]4(OC(C)=O)CO[C@@H]4C[C@H](OCSC)[C@@]3(C)C(=O)[C@H](OC(C)=O)C(=C1C)C2(C)C)[C@@H](NC(=O)OC(C)(C)C)c1ccccc1` [Example 15, 3′-N-debenzoyl-3′-N-(t-butoxycarbonyl)-2′-O-ethyloxycarbonyl-7-O-methylthiomethylpaclitaxel], the “T/C (mg/kg/inj.; schedule in days)” value with M109 lung carcinoma [5] (8 mg/kg/inj.) was 192 (8; d. 5 + 9) %.

On to `CC(=O)O[C@@]12CO[C@@H]1C[C@H](O)[C@@]1(C)C(=O)[C@H](O)C3=C(C)[C@@H](OC(=O)[C@H](O)[C@@H](NC(=O)OC(C)(C)C)c4ccccc4)C[C@@](O)([C@@H](OC(=O)c4ccccc4)[C@H]21)C3(C)C` [Texotere ®, reference compound], for which the IC50 stood at 0.004 µM in test [1] and 0.213 µM in test [2].

`CC(=O)O[C@H]1C(=O)[C@@]2(C)[C@H]([C@H](OC(=O)c3ccccc3)[C@]3(O)C[C@H](OC(=O)[C@H](O)[C@@H](NC(=O)c4ccccc4)c4ccccc4)C(C)=C1C3(C)C)[C@]1(OC(C)=O)CO[C@@H]1C[C@@H]2O` [paclitaxel, reference compound]: the IC50 in test [1] turned out to be 0.004 µM; in test [2], 0.44 µM. In addition, the “activity in sc M109 model” value in the test with M109 lung carcinoma [3] (another M109 experiment, dissolved in cremophore/ethanol/saline, 60/mg/kg/inj.) is “did not show activity”; with M109 lung carcinoma [3] (one M109 experiment, 160 mg/kg/adm. (highest tested), suspended in water and Tween 80) it was “did not show activity”. The T-C in the test on M109 lung carcinoma [3] (setting [12]) worked out at 14 days; in the test with M109 lung carcinoma [3] (setting [13]), 13 days. Also, the “max. % T/C” value in the test on M109 lung carcinoma [3] (setting [12]) is recorded as 167%; with M109 lung carcinoma [3] (setting [13]), 132%. Also, the “Maximum Effect T-C” value is reported as 14 days in the test with M109 lung carcinoma [3] (sc M109, i.v. once daily days 4-8, opt. dose 24 mg/kg/inj (lower dose gave maximum delay in tumor growth)) and 15 days in the test with M109 lung carcinoma [3] (setting [14]). Further, the “Maximum Effect % T/C” value with M109 lung carcinoma [3] (sc M109, i.v. once daily days 4-8, opt. dose 48 mg/kg/inj (higher dose gave maximum increase in lifespan)) is on record as 134%; in the test on M109 lung carcinoma [3] (setting [14]) it was 151%. For the same compound, the “max. T-C” value in test [6] (setting [11]) was 26.3 days. Further, the “cures (tumor-free on Day 80 post tumor implant)” value in test [4] (iv, 24 mg/kg/inj., of 7 treated mice) came to 6; in test [4] (iv, 36 mg/kg/inj., of 8 treated mice) it was 6.
